According to US20240400606A1, “SMALL MOLECULE ACTIVATORS OF THE IMMUNE SYSTEM” (THE BOARD OF TRUSTEES OF THE UNIVERSITY OF ILLINOIS, priority 2021, published 2024):
Entries after “also recorded” stand apart in the source; their conditions may differ.

Experiments:
[1] = test system: whole cell CS levels in MDG; assay: Whole cell cholesterol sulfate quantification, MDG; type: cell-based, human; conditions: 6.25 μM, 72 hours
Method: General Whole Cell Cholesterol Sulfate Quantification. 60×15 mm tissue culture dishes were seeded with MCF-7 at 2×10^6 cells/dish or T47D at 1×10^6 cells per dish, 5 mL total media volume, and allowed to adhere overnight. Compounds of interest were dissolved in DMSO. Cells were treated with 25 μL 1.25 mM compound of interest stock (6.25 μM final compound concentration, 0.5% final DMSO concentration) or DMSO for 72 hours. To harvest, media was aspirated, and cells were washed once with PBS before detaching with trypsin. Trypsin was quenched with media. Cells were centrifuged at 300 xg for 3 minutes and supernatant was discarded. Cells were resuspended in media and counted using a Countess 3 automated cell counter (Thermo Fisher Scientific). 1.5×10^6 cells were collected, washed twice with 1 mL PBS, then pelleted and stored at −80° C. until lysis. […] 100 μL of supernatant was transferred to an empty Eppendorf tube and submitted for LC-MS/MS quantification (UIUC Metabolomics Center), along with 5 mM cholesterol sulfate sodium salt standard.
General LC-MS/MS Quantification Method. Both DHEAS and CS samples were analyzed by 6500 QTRAP (Sciex, Redwood City, CA) liquid chromatography-tandem mass spectrometry. […] Cholesterol-sulfate and DHEA-sulfate were detected by multiple reaction monitoring (MRM) at m/z 465→97.0 and 367.0→97.0 respectively. […]

IMPAD1 = IMPAD1 (Homo sapiens (Human), UniProt Q9NX62); assay: IMPAD1 in vitro activity assay; type: biochemical
IMPAD1, sequence (Q9NX62 whole entry): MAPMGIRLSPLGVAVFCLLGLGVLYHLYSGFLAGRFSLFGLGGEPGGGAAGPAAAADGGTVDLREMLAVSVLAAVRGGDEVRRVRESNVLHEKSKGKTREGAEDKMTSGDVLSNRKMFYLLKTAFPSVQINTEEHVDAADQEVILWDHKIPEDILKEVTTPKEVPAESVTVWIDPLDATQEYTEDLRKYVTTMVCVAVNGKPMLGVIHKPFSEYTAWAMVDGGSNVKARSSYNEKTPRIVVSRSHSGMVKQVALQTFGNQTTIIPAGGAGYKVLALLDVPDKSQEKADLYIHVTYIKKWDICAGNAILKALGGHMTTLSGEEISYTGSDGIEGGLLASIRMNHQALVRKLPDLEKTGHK
Method: IMPAD1 Assay. Working stock solutions of IMPAD1 (0.1 mg/mL in 1× activity assay buffer), adenosine 3′,5′-diphosphate (PAP; dissolved first in DMSO to make stock solution then diluted to 200 μM in 1× assay buffer), and compound of interest in DMSO were prepared. Two technical replicates were assayed for each sample. Reaction mixes were prepared by mixing 6 μL IMPAD1 stock solution, 2.4 μL compound of interest stock or DMSO, 21.6 μL 1× assay buffer to make 30 μL reaction mix. Amount of reaction mix was scaled accordingly to number of samples assayed. 15 μL of reaction mix was dispensed to each well (384-well plate). 15 μL 200 μM PAP stock solution was added to each well. The reaction was incubated at 37° C. for 45 minutes, then quenched by addition of 15 μL of malachite green solution A, followed by addition of 15 μL of malachite green solution B. The plate was left at room temperature for 20 minutes for color stabilization, then absorbance was read at 620 nm. Phosphate standard curve generation was identical to that described under “Optimized Coupled Chromogenic SULT2B1b Activity Assay”, 384-well format. […]
Percent inhibition was calculated as: 100−[100×[(Phosphate produced per wellaverage, compound of interest−Phosphate produced per wellaverage, PAP)/(Phosphate produced per wellaverage, IMPAD1−Phosphate produced per wellaverage, PAP)]].

SULT2B1b = SULT2B1b (Homo sapiens (Human), UniProt O00204); assay: Compound aggregation assay (LC-MS/MS assay with BSA decoy protein); type: biochemical; conditions: decoy protein BSA 0.1 mg/mL, dose response; listed as IB:10:D
SULT2B1b, sequence (O00204 whole entry): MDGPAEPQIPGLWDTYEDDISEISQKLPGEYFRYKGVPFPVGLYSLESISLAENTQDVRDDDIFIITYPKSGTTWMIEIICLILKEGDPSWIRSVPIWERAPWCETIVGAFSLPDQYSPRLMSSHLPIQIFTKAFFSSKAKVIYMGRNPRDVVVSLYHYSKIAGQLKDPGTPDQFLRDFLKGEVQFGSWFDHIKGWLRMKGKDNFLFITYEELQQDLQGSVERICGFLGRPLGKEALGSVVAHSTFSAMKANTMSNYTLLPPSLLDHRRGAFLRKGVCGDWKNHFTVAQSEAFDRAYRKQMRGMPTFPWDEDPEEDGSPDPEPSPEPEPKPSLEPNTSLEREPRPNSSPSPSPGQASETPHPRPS
Method: Compound Aggregation Assay. Stock solutions of DHEA (5 mM in DMSO) and compound of interest (5 mM in DMSO) were prepared. For each 60 μL reaction, to a 1.5 mL Eppendorf tube was added 26.7 μL 1× assay buffer supplemented with 0.2 mg/mL bovine serum albumin (BSA) and 1.2 μL compound of interest or DMSO. BSA-containing 1× assay buffer and compound of interest were incubated at room temperature for 5 minutes before addition of 1.2 μL of 5 mM DHEA, and 0.9 μL 6.6 mM PAPS. SULT2B1b was diluted to 1.5 μg/μL in protein storage buffer then down to 0.8 μg/μL in 1× activity assay buffer. 30 μL of 0.8 μg/μL SULT2B1b was added to each reaction. Reactions were incubated for 2 hours at 37° C. with shaking at 250 rpm. To quench, 30 μL reaction mix was added to 30 μL ice cold 0.5% HCl in MeCN, then centrifuged at 13,000 xg at room temperature for 3 min. 50 μL supernatant was transferred to an empty Eppendorf tube and submitted for LC-MS/MS quantification (UIUC Metabolomics Center). For samples run without BSA, an identical protocol was followed using 26.7 μL 1× assay buffer that had not been supplemented with BSA. Controls: Reaction mix made with DHEA, DMSO in place of compound of interest (DHEA control).
Percent inhibition was calculated as: 100−[100×(DHEA-sulfate producedcompound of interest/DHEA sulfate producedDHEA)].

C[C@]12CCC(=O)N(Cc3ccc(Br)cc3)C1=CC[C@@H]1[C@@H]2C(=O)C[C@]2(C)C(=O)CC[C@@H]12 [Compound 3, (4aR,4bS,6aS,9aS,9bS)-1-(4-bromobenzyl)-4a,6a-dimethyl-3,4,4a,6,6a,8,9,9a,9b,10-decahydro-1H-indeno[5,4-f]quinoline-2,5,7(4bH)-trione]
whole cell CS levels vs DMSO [1]: confirmed

C[C@]12CCC(=O)N(Cc3ccc(Cl)cc3)C1=CC[C@@H]1[C@@H]2C(=O)C[C@]2(C)C(=O)CC[C@@H]12 [Compound 1, (4aR,4bS,6aS,9aS,9bS)-1-(4-chlorobenzyl)-4a,6a-dimethyl-3,4,4a,6,6a,8,9,9a,9b,10-decahydro-1H-indeno[5,4-f]quinoline-2,5,7(4bH)-trione]
inhibition of IMPAD1 (IMPAD1): does not inhibit
shift in SULT2B1b inhibition in the presence of BSA (SULT2B1b): minimal shift; also recorded: no change
